For series [1], the system named is Musca domestica. As to conditions: 0.5 γ/insect; literature compounds (Agricultural and Food Chemistry 11, 1963, p.237); cited from earlier work.
Series [2] in a line: Acute oral toxicity (DL 50) in the albino mouse. As to conditions: in vivo.
Series [3] deals with Leptinotarsa decemlineata. The experiment in a line: Activity test on Leptinotarsa decemlineata larvae on potato plants. As to conditions: for mortality at 1 %: read-out: % mort. Leptinot. Decemlin. Type of series: in vivo. From the text:
Potato plants grown in pots were infested with 4-day old larvae and subjected to besprinkling with an aqueous 0.1% dispersion of the product of Example 1.
(§1) In order to show how the compounds of the invention have different activities depending on the species at varying concentrations, the death-rate percentages on various infesting kinds of compounds of the invention at varying concentrations of active principle have been recorded in Table II.

The subject of another series is Macrosiphum Euphorbiae. Kind of series: Activity test on Macrosiphum euphorbiae (aphides) on potato plants. Format: in vivo.
Excerpt: Small potato plants, grown in pots, were infested with adult aphide females and, after a few hours, subjected to besprinkling with an aqueous dispersion of the product of Example 1, at a concentration of 0.1%. The percentual death-rate turned out to be 100% (on small untreated plants = 0).
as §1

The next series has as its system Culex pipiens. Kind of series: Activity test on Culex pipiens larvae in aqueous dispersion. Format: in vivo.
Excerpt: Into glasses containing an aqueous dispersion of the product of Example 1 and at a concentration of 0.005 parts per million, p.p.m.: there were introduced larvae of third and fourth age.
as §1

Series [4] concerns Musca domestica. The experiment in a line: Activity test on Musca domestica, topical application. Format: in vivo. As for the experimental part:
Activity of "Musca domestica" by O-methyl-O-(2,4,5-trichlorophenyl)-phosphoroamidothioates with relationship to the weight of the alkyl group bound to the nitrogen atom (iso-C3 H7 = 1) in comparison with that of the compound of Example 1 of this invention (in a quantity of 0.5 γ/insect):
Adult 4-day flies were treated by topical application by means of a micro-syringe of 1 cubic millimeters (mm^3) of an acetone solution at 0.5 γ/ .mm^3 according to Example 1. […] (The death-rate of the flies treated with 1 .mm^3 of acetone under the same conditions was equal to 0).

The next series has as its system Tetran. Urt. adults. The experiment in a line: Activity on Tetran. Urt. adults (Table II). Type of series: in vivo.
Excerpt: as §1

The subject of the next series is Spodopt. Littoralis. Kind of series: Activity on Spodopt. Littoralis (Table II). Type of series: in vivo. As to conditions: 1 % a.p.
Excerpt: as §1

The subject of a further series is Tetran Urt. eggs. Kind of series: Activity on Tetran Urt. eggs (Table II). Format: in vivo.
Excerpt: as §1

The next series deals with Pieris Brassicae. The experiment in a line: Activity on Pieris Brassicae (Table II). As to conditions: read-out: % mort. Pieris Brassicae. Format: in vivo.
Excerpt: as §1

The next series has as its system albino mouse. As to conditions: oral, comparison value; cited from earlier work.

These results are taken from patent US4087489A, “Insecticidal N-polychloroallylamido-thiophosphoric esters” (priority 1975, dated 1978).

Like-named read-outs stand apart in the source and are kept apart here.

Regarding `COP(=S)(NC(C)C)Oc1ccc(Cl)cc1Cl` (stereo not drawn), in the series on Musca domestica [1], the “Percentual death-rate on Musca domestica” value is 100%.
For `COP(=S)(NC(C)C)Oc1cc(Cl)c(Cl)cc1Cl` (stereo not drawn), the “Percentual death-rate on Musca domestica” value in the series with Musca domestica [1] is reported as 100%.
As for `COP(=S)(NCC(C)C)Oc1cc(Cl)c(Cl)cc1Cl` (stereo not drawn), in the series on Musca domestica [1], the “Percentual death-rate on Musca domestica” value is reported as 92%.
In the case of `COP(=S)(NC(C)(C)C)Oc1cc(Cl)c(Cl)cc1Cl` (stereo not drawn), the “Percentual death-rate on Musca domestica” value in the series with Musca domestica [1] is 13%.
Consider `CCOP(=S)(NCC=C(Cl)Cl)Oc1cc(Cl)c(Cl)cc1Cl` (stereo not drawn) [Example 1, O-ethyl-O-(2,4,5-trichlorophenyl)-N-(3,3-dichloro-allyl)amido-thiophosphate], for which, in series [2], the median lethal dose (LD50) (commonly the dose expected to kill half of the subjects tested) is more than 100 mg/kg. The mortality at 0.1 % was 100% in series [3] (4-day old larvae on potato plants, aqueous 0.1% dispersion, after 48 hrs, read-out: percentual death-rate of the larvae) and 100% in the series with Macrosiphum Euphorbiae (read-out: percentual death-rate). Moreover, the mortality at 0.005 ppm in the series on Culex pipiens (larvae of third and fourth age, 0.005 p.p.m., after 24 hours, read-out: death-rate) was determined as 100%. Further, the “Percentual death-rate on Musca domestica” value in the series with Musca domestica [4] (0.5 γ/insect, Table I) was 100%. The same molecule displayed a death-rate in the series with Musca domestica [4] (adult 4-day flies, topical 1 mm^3 acetone solution at 0.5 γ/mm^3, after 24 hours) of 100%.
Turning to `CSc1ccc(OP(=S)(NCC=C(Cl)Cl)OC(C)C)cc1C` (stereo not drawn) [Example M7468], the “% mort. Tetran. Urt. adults” value in the series with Tetran. Urt. adults (0,1 % a.p.) was 0%. Besides, the mortality at 1 % in [3] (1 % a.p.) came to 30%. For the same molecule, the mortality at 0.02 µg/mL with Culex pipiens (0,02 ppm a.p., read-out: % mort. Oulex Pipens) came to 30%. Further, in the series on Spodopt. Littoralis, the “% mort. Spodopt. Littoralis” value stood at 0%.
Consider `COP(=S)(Oc1ccc(SC)c(C)c1)N(C)CC=C(Cl)Cl` (stereo not drawn) [Example M7469], for which the mortality at 1 % in series [3] was found to be 20%. The “% mort. Tetran Urt. eggs” value with Tetran Urt. eggs (0,1 % a.p.) is 24%; with Tetran Urt. eggs (1 % a.p.), 100%. In the series with Spodopt. Littoralis, the “% mort. Spodopt. Littoralis” value came to 15%.
Consider `CCOP(=S)(NCC=C(Cl)Cl)Oc1ccc([N+](=O)[O-])c(C)c1` (stereo not drawn) [M 6986], for which the “% mort. Tetran. Urt. adults” value with Tetran. Urt. adults (1 % a.p.) amounted to 26%. Further, the mortality at 1 % in [3] (1 % a.p.) was found to be 40%; in the series on Macrosiphum Euphorbiae (1 % a.p., read-out: % mort. Macrosiphum Euphorbiae), 100%; in the series on Pieris Brassicae (1 % a.p.) it was 100%. Further, the “% mort. Tetran Urt. eggs” value in the series on Tetran Urt. eggs (1 % a.p.) is reported as 12%. For the same molecule, the mortality at 0.2 µg/mL in the series with Culex pipiens (0,2 ppm a.p., read-out: % mort. Oulex Pipens) turned out to be 100%. The mortality at 2 µg/mL in the series with Culex pipiens (read-out: % mort. Oulex Pipens) was 100%. In addition, the “% mort. Spodopt. Littoralis” value in the series on Spodopt. Littoralis is listed as 5%.
With `CC(C)OP(=S)(NCC=C(Cl)Cl)Oc1cc(Cl)c(Cl)cc1Cl` (stereo not drawn) [M 7147], the “% mort. Tetran. Urt. adults” value in the series with Tetran. Urt. adults (1 % a.p.) is recorded as 47%. Also, the results for the mortality at 1 % (in [3]; in the series with Pieris Brassicae) were 75% and 20%, respectively.
Consider `COP(=S)(NCC=C(Cl)Cl)Oc1cc(Cl)c(Cl)cc1Cl` (stereo not drawn) [M 7160], for which the mortality at 1 % in series [3] (1 % a.p.) came to 40%. Also, in the series with Spodopt. Littoralis, the “% mort. Spodopt. Littoralis” value was found to be 55%.
`COP(=S)(NCC=C(Cl)Cl)Oc1ccc([N+](=O)[O-])c(C)c1` (stereo not drawn) [M 7415]: in series [3] (1 % a.p.), the mortality at 1 % is 70%.
Regarding `COP(=S)(NCC=C(Cl)Cl)Oc1ccc(SC)c(C)c1` (stereo not drawn) [M 7466], the “% mort. Spodopt. Littoralis” value in the series with Spodopt. Littoralis is 0%.
Take `CCOP(=S)(NCC=C(Cl)Cl)Oc1ccc(SC)c(C)c1` (stereo not drawn) [M 7467]: the mortality at 1 % in series [3] (1 % a.p.) was 55%. Besides, the “% mort. Spodopt. Littoralis” value in the series on Spodopt. Littoralis is 30%.
Regarding `CCOP(=S)(Oc1ccc(SC)c(C)c1)N(C)CC=C(Cl)Cl` (stereo not drawn) [M 7470], in the series on Tetran. Urt. adults (0,01 % a.p.), the “% mort. Tetran. Urt. adults” value is recorded as 4%. For the same molecule, the “% mort. Spodopt. Littoralis” value in the series with Spodopt. Littoralis stood at 25%.
As to `CSc1ccc(OP(=S)(OC(C)C)N(C)CC=C(Cl)Cl)cc1C` (stereo not drawn) [M 7471], in the series with Tetran. Urt. adults (1 % a.p.), the “% mort. Tetran. Urt. adults” value is 57%. In series [3] (1 % a.p.), the mortality at 1 % worked out at 65%. Moreover, in the series on Pieris Brassicae (0,1 % a.p.), the mortality at 0.1 % came out at 0%. Besides, in the series with Spodopt. Littoralis, the “% mort. Spodopt. Littoralis” value was found to be 0%.
Turning to `CCOP(=S)(OCC)Oc1ccc([N+](=O)[O-])cc1` [Parathion, O,O-diethyl-O-p-nitrophenyl-phosphorthioate], the “D.L. 50” value with albino mouse is 14 mg/kg.
